ChEMBL document CHEMBL5728593, “Small molecule inhibitors of Galectin-3” (2021)
pIC50: −log10 of the molar value.

Target: Galectin-3 (Homo sapiens, UniProt P17931)
Experiment: Biological Assay: ASSAY BUFFER Composition: 25 mM HEPES, 100 mM NaCl, 0.005% Tween 20, 0.05% BSA prepared in sterile water (all reagents from Sigma). PROTOCOL: The Gal-3 assays were performed in 384 white Opti plates in three replicates at room temperature with gentle shaking at 250-300 rpm From the original stocks, […] working stock concentrations of His-tagged recombinant human Gal-3 (hGal-3) and that of B-ASF were prepared. From the working stock, 20 μl of hGal-3 (15 nM) and 20 μl B-ASF (15 nM) were added to the plates. In Negative Control, only hGal-3 was added. A concentration range of 50× working stocks were prepared for the compounds in 100% DMSO. Aliquots of 1 uL of the compounds were added to the wells and pre-incubated with 20 μl hGal-3 per well for 30 minutes Then 20 μl B-ASF were added and incubated for another 1 hour. To detect the signal, 5 μ(final conc. of 1.0 nM) terbium labelled Anti-His antibody was added and incubated for 30 min followed by adding 5 μ(final conc. of 20 nM) Streptavidin d2 and incubation for another 1 hour. The assay signal was detected using HTRF screen protocol (Excitation wavelength=340 nm, emission wavelength=615 nm/665 nm) on Envision 2104 Multilabel Reader. Data analysed using Toolset and Curve Master. Results are reported in the experimental section (IC50 in μM).

Chain of Galectin-3 (P17931 whole entry): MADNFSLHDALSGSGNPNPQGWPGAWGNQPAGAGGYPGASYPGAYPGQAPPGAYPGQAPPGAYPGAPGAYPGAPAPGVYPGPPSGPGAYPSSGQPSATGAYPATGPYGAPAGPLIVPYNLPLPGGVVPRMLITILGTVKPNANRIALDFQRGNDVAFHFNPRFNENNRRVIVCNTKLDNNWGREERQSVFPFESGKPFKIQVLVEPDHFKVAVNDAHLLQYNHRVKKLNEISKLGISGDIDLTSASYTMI

| pIC50 | SMILES |
| --- | --- |
| 6.70 | NC(=O)CO[C@@H]1[C@@H](n2cc(-c3cc(F)c(F)c(F)c3)nn2)[C@@H](O)[C@@H](CO)O[C@@H]1Sc1ccc(Cl)c(Cl)c1 |
| 6.65 | COCCO[C@@H]1[C@@H](n2cc(-c3cc(F)c(F)c(F)c3)nn2)[C@@H](O)[C@@H](CO)O[C@@H]1Sc1ccc(Cl)c(Cl)c1 |
